From PubChem BioAssay AID2060910 (Molecular Pharmacology Branch, DTP, NCI, 2025) come the findings set out here.

For this experiment, the system named is 242566-281-R-J2-PDC complex spheroid viability. The experiment is described as follows: Anticancer human tumor 242566-281-R-J2-PDC patient-derived pancreatic carcinoma cell line growth inhibition [RAS]. The settings on record: for viability, T/C: stronger effect = lower value. In short, it runs like this: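 Tumour cells grown as complex spheroids with HUVEC endothelial cells and mesenchymal stem cells, treated with RAS pathway inhibitor combinations. Each agent spans half-log steps from near clinical Cmax, or 10 microM where Cmax is unknown.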

Where only a bound is given, the exact number is not on record here.
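Also: spheroids exposed to compound for 7 days before readout.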
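For viability, T/C in this document: 100% = DMSO vehicle control wells.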

`O=C(c1ccc(F)c(F)c1Nc1ccc(I)cc1F)N1CC(O)([C@@H]2CCCCN2)C1` + C#Cc1c(F)ccc2cc(O)cc(-c3ncc4c(N5CC6CCC(C5)N6)nc(OCC56CCCN5CC(F)C6)nc4c3F)c12: the IC50 reads like this: (curve of first compound, second compound 0.0316 µM) 83.3 nM; (curve of first compound, second compound 0.1 µM) 56 nM; (curve of first compound, second compound 0.316 µM) 25.2 nM; (curve of first compound, second compound 1 µM) 8.45 nM; (curve of first compound, second compound 3.16 µM) 4.18 nM; (curve of first compound, second compound 10 µM) < 3.16 nM. The viability, T/C reads like this: (second compound 0.0316 µM, first compound 0.00316 µM) 89.3%; (second compound 0.0316 µM, first compound 0.01 µM) 90.4%; (second compound 0.0316 µM, first compound 0.0316 µM) 69.1%; (second compound 0.0316 µM, first compound 0.1 µM) 47.9%; (second compound 0.0316 µM, first compound 0.316 µM) 38.6%; (second compound 0.0316 µM, first compound 1 µM) 44.2%. For the same compound, the viability, T/C was 76.1% (second compound 0.1 µM, first compound 0.00316 µM); 73.6% (second compound 0.1 µM, first compound 0.01 µM); 57.7% (second compound 0.1 µM, first compound 0.0316 µM); 42% (second compound 0.1 µM, first compound 0.1 µM); 40.9% (second compound 0.1 µM, first compound 0.316 µM); 38.5% (second compound 0.1 µM, first compound 1 µM). Moreover, the viability, T/C reads like this: (second compound 0.316 µM, first compound 0.00316 µM) 73%; (second compound 0.316 µM, first compound 0.01 µM) 59.7%; (second compound 0.316 µM, first compound 0.0316 µM) 49.9%; (second compound 0.316 µM, first compound 0.1 µM) 37.3%; (second compound 0.316 µM, first compound 0.316 µM) 32.2%; (second compound 0.316 µM, first compound 1 µM) 39.9%. Besides, the viability, T/C was 60.1% (second compound 1 µM, first compound 0.00316 µM); 49.5% (second compound 1 µM, first compound 0.01 µM); 44.8% (second compound 1 µM, first compound 0.0316 µM); 30.4% (second compound 1 µM, first compound 0.1 µM); 35.1% (second compound 1 µM, first compound 0.316 µM); 38.6% (second compound 1 µM, first compound 1 µM). In addition, the viability, T/C (second compound 3.16 µM, first compound 0.00316 µM) was 50.8%; the viability, T/C (second compound 3.16 µM, first compound 0.01 µM) was 48.6%; the viability, T/C (second compound 3.16 µM, first compound 0.0316 µM) was 34%; the viability, T/C (second compound 3.16 µM, first compound 0.1 µM) is 29.4%; the viability, T/C (second compound 3.16 µM, first compound 0.316 µM) is 34.9%; the viability, T/C (second compound 3.16 µM, first compound 1 µM) was 38.2%. Also, the viability, T/C by setting is: (second compound 10 µM, first compound 0.00316 µM) 52.6%; (second compound 10 µM, first compound 0.01 µM) 41.3%; (second compound 10 µM, first compound 0.0316 µM) 34.1%; (second compound 10 µM, first compound 0.1 µM) 37%; (second compound 10 µM, first compound 0.316 µM) 36.8%; (second compound 10 µM, first compound 1 µM) 37.5%.
Consider `CCC(CC)c1cc(NC2CCC(N)C2)n2nccc2n1` (stereo not given) + CCn1c(-c2cccnc2C(C)OC)c2c3cc(ccc31)N1CCOC(CC(NC(=O)C(C(C)C)N(C)C(=O)C3(F)CCN(C(=O)C#CC(C)(C)N(C)C)CC3)C(=O)N3CCCC(N3)C(=O)OCC(C)(C)C2)C1, for which the IC50 (curve of first compound, second compound 0.000949 µM) turned out to be 2760 nM; the concentration for half-maximal inhibition (IC50) (curve of first compound, second compound 0.003 µM) was determined as 2750 nM; the IC50 (curve of first compound, second compound 0.00949 µM) was 2180 nM; the IC50 (curve of first compound, second compound 0.03 µM) stood at 1870 nM; the IC50 (curve of first compound, second compound 0.0949 µM) is 1670 nM; the IC50 (curve of first compound, second compound 0.3 µM) was determined as 1500 nM. For the same compound, the viability, T/C was 89.3% (second compound 0.000949 µM, first compound 0.0316 µM); 91.4% (second compound 0.000949 µM, first compound 0.1 µM); 91.1% (second compound 0.000949 µM, first compound 0.316 µM); 97.8% (second compound 0.000949 µM, first compound 1 µM); 44.2% (second compound 0.000949 µM, first compound 3.16 µM); 1.81% (second compound 0.000949 µM, first compound 10 µM). In addition, the viability, T/C was 97.9% (second compound 0.003 µM, first compound 0.0316 µM); 112% (second compound 0.003 µM, first compound 0.1 µM); 102% (second compound 0.003 µM, first compound 0.316 µM); 105% (second compound 0.003 µM, first compound 1 µM); 42.4% (second compound 0.003 µM, first compound 3.16 µM); 1.8% (second compound 0.003 µM, first compound 10 µM). Further, the viability, T/C was 107% (second compound 0.00949 µM, first compound 0.0316 µM); 77.5% (second compound 0.00949 µM, first compound 0.1 µM); 86.7% (second compound 0.00949 µM, first compound 0.316 µM); 87.6% (second compound 0.00949 µM, first compound 1 µM); 32% (second compound 0.00949 µM, first compound 3.16 µM); 2.19% (second compound 0.00949 µM, first compound 10 µM). The viability, T/C is 93.3% (second compound 0.03 µM, first compound 0.0316 µM); 86.3% (second compound 0.03 µM, first compound 0.1 µM); 89.9% (second compound 0.03 µM, first compound 0.316 µM); 84.3% (second compound 0.03 µM, first compound 1 µM); 21.4% (second compound 0.03 µM, first compound 3.16 µM); 2.92% (second compound 0.03 µM, first compound 10 µM). Moreover, the viability, T/C was 106% (second compound 0.0949 µM, first compound 0.0316 µM); 96.6% (second compound 0.0949 µM, first compound 0.1 µM); 90% (second compound 0.0949 µM, first compound 0.316 µM); 80.5% (second compound 0.0949 µM, first compound 1 µM); 12.4% (second compound 0.0949 µM, first compound 3.16 µM); 3.14% (second compound 0.0949 µM, first compound 10 µM). The viability, T/C by setting is: (second compound 0.3 µM, first compound 0.0316 µM) 82.4%; (second compound 0.3 µM, first compound 0.1 µM) 89.8%; (second compound 0.3 µM, first compound 0.316 µM) 84.7%; (second compound 0.3 µM, first compound 1 µM) 69.2%; (second compound 0.3 µM, first compound 3.16 µM) 15.2%; (second compound 0.3 µM, first compound 10 µM) 2.62%.
Consider `CC(Nc1ccc2c(c1)OCCn1cc(N3C(=O)OCC3C(F)F)nc1-2)C(N)=O` (stereo not given), for which the viability, T/C was 99.1% [middle of 4 runs] (compound 0.0316 µM); 99.7% [middle of 4 runs] (compound 0.1 µM); 57.4% [middle of 4 runs] (compound 1 µM); 37.6% [middle of 4 runs] (compound 3.16 µM); 28.8% [middle of 4 runs] (compound 10 µM). Under “curve of compound”, the IC50 was 1.41 µM [middle of 4 runs].
For the compound `C#Cc1c(F)ccc2cc(O)cc(-c3ncc4c(N5CC6CCC(C5)N6)nc(OCC56CCCN5CC(F)C6)nc4c3F)c12` (stereo not given), the viability, T/C reads like this: (compound 0.0316 µM) 84.1% [middle of 8 runs]; (compound 0.1 µM) 80.2% [middle of 8 runs]; (compound 0.316 µM) 71.4% [middle of 8 runs]; (compound 3.16 µM) 53.9% [middle of 8 runs]; (compound 10 µM) 49.6% [middle of 8 runs].
